Read-outs that look alike come from different tables or passages of the source.
How the values were obtained:
[1] = test system: MV-4-11 acute myeloid leukemia cells; assay: CellTiter-Glo 2.0 cell viability, MV-4-11; format: cell-based; details: Homo sapiens
How it was run: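 MV4-11 cells plated at 3,000 cells/well on pre-dispensed compounds and incubated 3 days at 37 °C, 5% CO2. Viability read as ATP-dependent luminescence with CellTiter-Glo 2.0 after 20 min at ambient temperature, followed by regression analysis.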

[2] = test system: full NCI 60 cell panel; assay: NCI 60 Cell One-dose screen; format: cell-based, human; details: single high dose 10^−5 M, NCI 60 panel
Excerpt: Compounds were submitted to the NCI 60 Cell screen and tested at a single high dose (10^−5 M) in the full NCI 60 cell panel (see the following reference for details of using NCI 60 human tumor cell lines for screening anticancer drugs: Shoemaker R H. The NCI60 human tumor cell line anticancer drug screen. Nature Rev Cancer 2006; 6: 813-23). The One-dose data is reported as a mean graph of the percent growth of treated cells. The number reported for the One-dose assay is growth relative to the no-drug control, and relative to the time zero number of cells. This allows detection of both growth inhibition (values between 0 and 100) and lethality (values less than 0). For example, a value of 100 means no growth inhibition. A value of 40 would mean 60% growth inhibition. A value of 0 means no net growth over the course of the experiment. A value of −40 would mean 40% lethality. A value of −100 means all cells are dead. FIGS. 1-8 show the mean graph of percent growth against the NCI-60 cell panel for NUCC-0226674, NUCC-0226679, NUCC-0226680, NUCC-0226683, NUCC-0226689, NUCC-0226694, NUCC-0226695, and NUCC-0226698.

[3] = test system: EKVX; assay: NCI 60 five-dose screen EKVX; format: cell-based; details: Homo sapiens; for CC50: read-out: LC50 (the source's name) (converted)
[4] = test system: NCI-H460; assay: NCI 60 five-dose screen NCI-H460; format: cell-based; details: Homo sapiens; for CC50: read-out: LC50 (the source's name) (converted)
[5] = test system: HCT-116; assay: NCI 60 five-dose screen HCT-116; format: cell-based; details: Homo sapiens; for CC50: read-out: LC50 (the source's name) (converted)
[6] = test system: HCT-15; assay: NCI 60 five-dose screen HCT-15; format: cell-based; details: Homo sapiens; for CC50: read-out: LC50 (the source's name) (converted)
[7] = test system: HT29; assay: NCI 60 five-dose screen HT29; format: cell-based; details: Homo sapiens
[8] = test system: SW-620; assay: NCI 60 five-dose screen SW-620; format: cell-based; details: Homo sapiens; for CC50: read-out: LC50 (the source's name) (converted)
[9] = test system: SF-295; assay: NCI 60 five-dose screen SF-295; format: cell-based; details: Homo sapiens; for CC50: read-out: LC50 (the source's name) (converted)
[10] = test system: SF-539; assay: NCI 60 five-dose screen SF-539; format: cell-based; details: Homo sapiens; for CC50: read-out: LC50 (the source's name) (converted)
[11] = test system: M14; assay: NCI 60 five-dose screen M14; format: cell-based; details: Homo sapiens; for CC50: read-out: LC50 (the source's name) (converted)
[12] = test system: MDA-MB-435; assay: NCI 60 five-dose screen MDA-MB-435; format: cell-based; details: Homo sapiens; for CC50: read-out: LC50 (the source's name) (converted)
[13] = test system: UACC-62; assay: NCI 60 five-dose screen UACC-62; format: cell-based; details: Homo sapiens; for CC50: read-out: LC50 (the source's name) (converted)
[14] = test system: 786-0; assay: NCI 60 five-dose screen 786-0; format: cell-based; details: Homo sapiens; for CC50: read-out: LC50 (the source's name) (converted)
[15] = test system: ACHN; assay: NCI 60 five-dose screen ACHN; format: cell-based; details: Homo sapiens; for CC50: read-out: LC50 (the source's name) (converted)
[16] = test system: RXF 393; assay: NCI 60 five-dose screen RXF 393; format: cell-based; details: Homo sapiens; for CC50: read-out: LC50 (the source's name) (converted)
[17] = test system: SN12C; assay: NCI 60 five-dose screen SN12C; format: cell-based; details: Homo sapiens; for CC50: read-out: LC50 (the source's name) (converted)
[18] = test system: MCF7; assay: NCI 60 five-dose screen MCF7; format: cell-based; details: Homo sapiens; for CC50: read-out: LC50 (the source's name) (converted)
[19] = test system: MDA-MB-231/ATCC; assay: NCI 60 five-dose screen MDA-MB-231/ATCC; format: cell-based; details: Homo sapiens; for CC50: read-out: LC50 (the source's name) (converted)
[20] = test system: BT-549; assay: NCI 60 five-dose screen BT-549; format: cell-based; details: Homo sapiens; for CC50: read-out: LC50 (the source's name) (converted)
[21] = MV4-11, 72 h, MV-4-11 cells, 3 days, CellTiter-Glo 2.0, read-out: IC50 (uM) [Cell Type: MV-4-11]
[22] = MV4-11, bound stated in text, read-out: IC50 against MV-4-11 acute myeloid leukemia cells

O=c1ccc(Cn2c(C(F)(F)F)cc3c(Cl)ncnc32)c[nH]1 [NUCC-0226698]
IC50 [1, 21]: 1.26 µM | IC50 [1, 22]: < 2 µM | growth inhibition in the One-Dose Screen [2]: significant growth inhibition | GI50 [3]: 14.1 µM | IC50 [3]: 30.9 µM | IC (TGI) [3]: 36.3 µM | CC50 [3]: 91.2 µM | GI50 [4]: 12 µM | IC50 [4]: 16.6 µM | IC (TGI) [4]: 36.3 µM | CC50 [4]: ≥ 100 µM | GI50 [5]: 3.55 µM | IC50 [5]: 4.17 µM | IC (TGI) [5]: 29.5 µM | CC50 [5]: ≥ 100 µM | GI50 [6]: 2.95 µM | IC50 [6]: 3.8 µM | IC (TGI) [6]: 14.8 µM | CC50 [6]: ≥ 100 µM | GI50 ([7]; HT-29): 28.8 µM | IC50 ([7]; HT-29): 38 µM | IC (TGI) ([7]; HT-29): 100 µM | CC50 ([7]; HT-29, read-out: LC50 (the source's name) (converted)): ≥ 100 µM | GI50 [8]: 5.5 µM | IC50 [8]: 7.08 µM | IC (TGI) [8]: 26.3 µM | CC50 [8]: ≥ 100 µM | GI50 [9]: 28.2 µM | IC50 [9]: 50.1 µM | IC (TGI) [9]: 100 µM | CC50 [9]: ≥ 100 µM | GI50 [10]: 17.4 µM | IC50 [10]: 32.4 µM | IC (TGI) [10]: 40.7 µM | CC50 [10]: 95.5 µM | GI50 [11]: 4.07 µM | IC50 [11]: 6.92 µM | IC (TGI) [11]: 21.9 µM | CC50 [11]: ≥ 100 µM | GI50 [12]: 4.68 µM | IC50 [12]: 7.24 µM | IC (TGI) [12]: 20.4 µM | CC50 [12]: 74.1 µM | GI50 [13]: 5.5 µM | IC50 [13]: 11 µM | IC (TGI) [13]: 20 µM | CC50 [13]: 53.7 µM | GI50 [14]: 43.7 µM | IC50 [14]: 72.4 µM | IC (TGI) [14]: 100 µM | CC50 [14]: ≥ 100 µM | GI50 [15]: 22.4 µM | IC50 [15]: 33.9 µM | IC (TGI) [15]: 100 µM | CC50 [15]: ≥ 100 µM | GI50 [16]: 11.2 µM | IC50 [16]: 35.5 µM | IC (TGI) [16]: 32.4 µM | CC50 [16]: 91.2 µM | GI50 [17]: 6.46 µM | IC50 [17]: 11.7 µM | IC (TGI) [17]: 23.4 µM | CC50 [17]: 69.2 µM | GI50 [18]: 20.9 µM | IC50 [18]: 32.4 µM | IC (TGI) [18]: 67.6 µM | CC50 [18]: ≥ 100 µM | GI50 [19]: 4.68 µM | IC50 [19]: 10 µM | IC (TGI) [19]: 18.2 µM | CC50 [19]: 57.5 µM | GI50 [20]: 14.1 µM | IC50 [20]: 29.5 µM | IC (TGI) [20]: 28.8 µM | CC50 [20]: 58.9 µM

OC1CCC(Cn2c(C(F)(F)F)cc3c(Cl)ncnc32)CC1 (stereo not drawn) [NUCC-0226689]
IC50 [1, 21]: 0.689 µM | IC50 [1, 22]: < 2 µM | growth inhibition in the One-Dose Screen [2]: significant growth inhibition | GI50 ([3]; five-dose): 12.9 µM | IC50 ([3]; five-dose): 29.5 µM | IC (TGI) ([3]; five-dose): 38.9 µM | CC50 ([3]; five-dose): ≥ 100 µM | GI50 ([4]; five-dose): 4.79 µM | IC50 ([4]; five-dose): 5.5 µM | IC (TGI) ([4]; five-dose): 16.6 µM | CC50 ([4]; five-dose): 53.7 µM | GI50 ([5]; five-dose): 3.55 µM | IC50 ([5]; five-dose): 4.17 µM | IC (TGI) ([5]; five-dose): 15.8 µM | CC50 ([5]; five-dose): 72.4 µM | GI50 ([6]; five-dose): 3.72 µM | IC50 ([6]; five-dose): 4.79 µM | IC (TGI) ([6]; five-dose): 20 µM | CC50 ([6]; five-dose): ≥ 100 µM | GI50 ([7]; HT-29, five-dose): 15.5 µM | IC50 ([7]; HT-29, five-dose): 21.9 µM | IC (TGI) ([7]; HT-29, five-dose): 100 µM | CC50 ([7]; HT-29, five-dose, read-out: LC50 (the source's name) (converted)): ≥ 100 µM | GI50 ([8]; five-dose): 12.3 µM | IC50 ([8]; five-dose): 17 µM | IC (TGI) ([8]; five-dose): 38.9 µM | CC50 ([8]; five-dose): ≥ 100 µM | GI50 ([9]; five-dose): 22.9 µM | IC50 ([9]; five-dose): 38.9 µM | IC (TGI) ([9]; five-dose): 83.2 µM | CC50 ([9]; five-dose): ≥ 100 µM | GI50 ([10]; five-dose): 17.8 µM | IC50 ([10]; five-dose): 32.4 µM | IC (TGI) ([10]; five-dose): 38.9 µM | CC50 ([10]; five-dose): 85.1 µM | GI50 ([11]; five-dose): 4.9 µM | IC50 ([11]; five-dose): 8.71 µM | IC (TGI) ([11]; five-dose): 26.9 µM | CC50 ([11]; five-dose): ≥ 100 µM | GI50 ([12]; five-dose): 12 µM | IC50 ([12]; five-dose): 20 µM | IC (TGI) ([12]; five-dose): 25.7 µM | CC50 ([12]; five-dose): 55 µM | GI50 ([13]; five-dose): 5.37 µM | IC50 ([13]; five-dose): 11.5 µM | IC (TGI) ([13]; five-dose): 19.5 µM | CC50 ([13]; five-dose): 51.3 µM | GI50 ([14]; five-dose): 32.4 µM | IC50 ([14]; five-dose): 49 µM | IC (TGI) ([14]; five-dose): 100 µM | CC50 ([14]; five-dose): ≥ 100 µM | GI50 ([15]; five-dose): 8.71 µM | IC50 ([15]; five-dose): 15.5 µM | IC (TGI) ([15]; five-dose): 50.1 µM | CC50 ([15]; five-dose): ≥ 100 µM | GI50 ([16]; five-dose): 12.6 µM | IC50 ([16]; five-dose): 37.2 µM | IC (TGI) ([16]; five-dose): 34.7 µM | CC50 ([16]; five-dose): 97.7 µM | GI50 ([17]; five-dose): 5.37 µM | IC50 ([17]; five-dose): 10 µM | IC (TGI) ([17]; five-dose): 20 µM | CC50 ([17]; five-dose): 53.7 µM | GI50 ([18]; five-dose): 37.2 µM | IC50 ([18]; five-dose): 52.5 µM | IC (TGI) ([18]; five-dose): 100 µM | CC50 ([18]; five-dose): ≥ 100 µM | GI50 ([19]; five-dose): 4.47 µM | IC50 ([19]; five-dose): 11 µM | IC (TGI) ([19]; five-dose): 20 µM | CC50 ([19]; five-dose): 69.2 µM | GI50 ([20]; five-dose): 13.2 µM | IC50 ([20]; five-dose): 28.2 µM | IC (TGI) ([20]; five-dose): 28.2 µM | CC50 ([20]; five-dose): 58.9 µM

Source: patent US20240109903A1, “SUBSTITUTED HETEROCYCLES FOR TREATING CANCER” (Northwestern University, priority 2022, published 2024)
